Patent US12421254B2, “KRAS modulators and uses thereof” (Quanta Therapeutics, Inc., priority 2023, dated 2025)

Key:
[1] = biological target: GST-tagged KRAS-G12V (2-169) (Homo sapiens, UniProt P01116, G12V); assay: Nucleotide exchange assay (NEA), SOS-mediated, HTRF, KRAS G12V; type: biochemical; conditions: Table 4; IC50 extracted at 90 min; 80 nM SOS
How it was run: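 Exchange onto fluorescent GTP-DY-647P1 (150 nM final) catalysed by 80 nM SOS1cat was followed by Tb-anti-GST HTRF at RT for up to 90 min, after 1 h compound pre-incubation with 0.25 nM GST-tagged KRAS-G12V (2-169), pH 7.3. DMSO = 0%, no-SOS blank = 100%; 4-parameter IC50 taken at 90 min.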

[2] = biological target: GST-tagged KRAS-G12D (2-169) (Homo sapiens, UniProt P01116, G12D); assay: Nucleotide exchange assay (NEA), SOS-mediated, HTRF, KRAS G12D; type: biochemical; conditions: Table 4; IC50 extracted at 30 min; 20 nM SOScat; read-out: NEA G12D IC50
Sequence of GST-tagged KRAS-G12D (2-169) (P01116 2-169 isoform P01116-2 G12D): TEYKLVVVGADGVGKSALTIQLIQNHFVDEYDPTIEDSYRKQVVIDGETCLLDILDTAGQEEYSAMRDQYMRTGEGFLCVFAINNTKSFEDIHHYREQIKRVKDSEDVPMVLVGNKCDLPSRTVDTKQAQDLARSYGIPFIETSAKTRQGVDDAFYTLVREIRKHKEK
How it was run: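 SOS1cat-driven loading of fluorescent GTP-DY-647P1 (150 nM) onto GST-KRAS-G12D (2-169, 0.25 nM) read by time-resolved FRET; SOScat 20 nM, compound preincubated with KRAS 1 h at RT. Signal blanked to no-SOS reactions, normalized to DMSO; IC50 fitted from the 30-min read.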

[3] = system: phospho-ERK in SW620 (KRAS-G12V) cells; assay: pERK In Cell Western (ICW) assay (Method B), SW620; type: cell-based; conditions: Homo sapiens, SW-620, 3 h, Table 4
How it was run: (§1)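 Per well, infrared pERK immunofluorescence was divided by DRAQ5 nuclear signal following 3 h treatment with a 9-point, ½-log compound series; seeding was 5,000 (AGS) or 10,000 (GP2D, SW620) cells per well. Percent-of-blank data were fitted to a four-parameter model for IC50.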

[4] = system: phospho-ERK in GP2D (KRAS-G12D) cells; assay: pERK In Cell Western (ICW) assay (Method B), GP2D; type: cell-based; conditions: GP2d, 3 h, Table 4
How it was run: as §1

Sequence of GST-tagged KRAS-G12V (2-169) (P01116 2-169 isoform P01116-2 G12V): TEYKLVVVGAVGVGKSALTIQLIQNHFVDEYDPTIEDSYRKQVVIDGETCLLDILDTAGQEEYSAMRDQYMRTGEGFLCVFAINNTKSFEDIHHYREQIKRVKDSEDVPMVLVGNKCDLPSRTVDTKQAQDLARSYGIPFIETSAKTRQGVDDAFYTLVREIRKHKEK

SMILES	IC50 [1] [nM]	IC50 [2] [nM]	IC50 [3] [nM]	IC50 [4] [nM]
CC(c1nonc1N)N(C)c1nc(OC[C@@]23CCCN2C[C@H](F)C3)nc(N2CC3(CCc4sc(N)c(C#N)c43)C2)n1 (stereo partly drawn) [Compound 156, 2′-amino-1-(4-((1-(4-amino-1,2,5-oxadiazol-3-yl)ethyl)(methyl)amino)-6-(((2R,7aS)-2-fluorotetrahydro-1H-pyrrolizin-7a(5H)-yl)methoxy)-1,3,5-triazin-2-yl)-5′,6′-dihydrospiro[azetidine-3,4′-cyclopenta[b]thiophene]-3′-carbonitrile]	< 10	100 to 1000	10 to 100	1000 to 20000
CC(c1cccnc1N)N(CCC#N)c1nc(OC[C@@]23CCCN2C[C@H](F)C3)nc(N2CC3(CCc4sc(N)c(C#N)c43)C2)n1 (stereo partly drawn) [Compound 118, 2-amino-1′-[4-[1-(2-amino-3-pyridyl)ethyl-(2-cyanoethyl)amino]-6-[[(2R,8S)-2-fluoro-1,2,3,5,6,7-hexahydropyrrolizin-8-yl]methoxy]-1,3,5-triazin-2-yl]spiro[5,6-dihydrocyclopenta[b]thiophene-4,3′-azetidine]-3-carbonitrile]	< 10	< 10	< 10	< 10
N#Cc1c(N)sc2c1C1(CN(c3nc(OCC4(CN5CCOCC5)CC4)nc(N4CCNC[C@H]4C(F)F)n3)C1)SC2 [Compound 190, (S)-2′-amino-1-(4-(2-(difluoromethyl)piperazin-1-yl)-6-((1-(morpholinomethyl)cyclopropyl)methoxy)-1,3,5-triazin-2-yl)-6′H-spiro[azetidine-3,4′-thieno[3,4-b]thiophene]-3′-carbonitrile]	10 to 100	< 10	1000 to 20000	100 to 1000
CC(c1nccnc1N)N(C)c1nc(OC[C@@]23CCCN2C[C@H](F)C3)nc(N2CC3(CCc4sc(N)c(C#N)c43)C2)n1 (single isomer, unassigned) [Compound 116A, 2-amino-1′-[4-[[(1*)-1-(3-aminopyrazin-2-yl)ethyl]-methyl-amino]-6-[[(2R,8S)-2-fluoro-1,2,3,5,6,7-hexahydropyrrolizin-8-yl]methoxy]-1,3,5-triazin-2-yl]spiro[5,6-dihydrocyclopenta[b]thiophene-4,3′-azetidine]-3-carbonitrile]	< 10	< 10	10 to 100	10 to 100
N#Cc1c(N)sc2c1C1(CC2)CN(c2nc(OC[C@@]34CCCN3C[C@H](F)C4)nc(N3CCc4n[nH]c(N)c4C3)n2)C1 [Compound 35, 2-amino-1′-[4-(3-amino-2,4,6,7-tetrahydropyrazolo[4,3-c]pyridin-5-yl)-6-[[(2R,8S)-2-fluoro-1,2,3,5,6,7-hexahydropyrrolizin-8-yl]methoxy]-1,3,5-triazin-2-yl]spiro[5,6-dihydrocyclopenta[b]thiophene-4,3′-azetidine]-3-carbonitrile]	1000 to 20000	100 to 1000	≥ 20000	1000 to 20000
C[C@H](c1cccnc1N)N(C)c1nc(OC[C@@]23CCCN2C[C@H](F)C3)nc(N2CC3(CCCc4sc(N)c(C#N)c43)C2)n1 [Compound 163, 2-amino-1′-[4-[[(1R)-1-(2-amino-3-pyridyl)ethyl]-methyl-amino]-6-[[(2R,8S)-2-fluoro-1,2,3,5,6,7-hexahydropyrrolizin-8-yl]methoxy]-1,3,5-triazin-2-yl]spiro[6,7-dihydro-5H-benzothiophene-4,3′-azetidine]-3-carbonitrile]	< 10	< 10	< 10	< 10
CCN(c1nc(OC[C@@]23CCCN2C[C@H](F)C3)nc(N2CC3(C2)SCc2sc(N)c(C#N)c23)n1)[C@@H](C)c1cccnc1N [Compound 139B, 2-amino-1′-[4-[[(1*)-1-(2-amino-3-pyridyl)ethyl]-ethyl-amino]-6-[[(2R,8S)-2-fluoro-1,2,3,5,6,7-hexahydropyrrolizin-8-yl]methoxy]-1,3,5-triazin-2-yl]spiro[6H-thieno[3,4-b]thiophene-4,3′-azetidine]-3-carbonitrile]	< 10	< 10	10 to 100	10 to 100
C[C@@]1(O)CCCN(c2nc(OCC3(CN4CCOCC4)CC3)nc(N3CC4(C3)c3c(sc(N)c3C#N)C[C@H]4F)n2)C1 [Compound 70, (5R)-2-amino-5-fluoro-1′-[4-[(3R)-3-hydroxy-3-methyl-1-piperidyl]-6-[[1-(morpholinomethyl)cyclopropyl]methoxy]-1,3,5-triazin-2-yl]spiro[5,6-dihydrocyclopenta[b]thiophene-4,3′-azetidine]-3-carbonitrile]	< 10	< 10	100 to 1000	100 to 1000
CC(O)CN(Cc1cccnc1N)c1nc(OC[C@@]23CCCN2C[C@H](F)C3)nc(N2CC3(CCc4sc(N)c(C#N)c43)C2)n1 (stereo partly drawn) [Compound 141, 2-amino-1′-[4-[(2-amino-3-pyridyl)methyl-(2-hydroxypropyl)amino]-6-[[(2R,8S)-2-fluoro-1,2,3,5,6,7-hexahydropyrrolizin-8-yl]methoxy]-1,3,5-triazin-2-yl]spiro[5,6-dihydrocyclopenta[b]thiophene-4,3′-azetidine]-3-carbonitrile]	< 10	10 to 100	100 to 1000	1000 to 20000
C[C@@]1(O)CCCN(c2nc(OC[C@@]34CCCN3C[C@H](F)C4)nc(N3CC4(C3)c3c(sc(N)c3C#N)CC4(F)F)n2)C1 [Compound 114, 2-amino-5,5-difluoro-1′-[4-[[(2R,8S)-2-fluoro-1,2,3,5,6,7-hexahydropyrrolizin-8-yl]methoxy]-6-[(3R)-3-hydroxy-3-methyl-1-piperidyl]-1,3,5-triazin-2-yl]spiro[6H-cyclopenta[b]thiophene-4,3′-azetidine]-3-carbonitrile]	< 10	< 10	100 to 1000	10 to 100
N#Cc1c(N)sc2c1C1(CC2)CN(c2nc(OCC3(CN4CCOCC4)CC3)nc(N3CCCC(C#N)C3)n2)C1 (stereo not shown) [Compound 56, 2-amino-1′-[4-(3-cyano-1-piperidyl)-6-[[1-(morpholinomethyl)cyclopropyl]methoxy]-1,3,5-triazin-2-yl]spiro[5,6-dihydrocyclopenta[b]thiophene-4,3′-azetidine]-3-carbonitrile]	10 to 100	100 to 1000	1000 to 20000	100 to 1000
CCN(c1nc(OC[C@@]23CCCN2C[C@H](F)C3)nc(N2CC3(C2)SCc2sc(N)c(C#N)c23)n1)C(C)c1nonc1N (stereo partly drawn) [Compound 171, 2-amino-1′-[4-[1-(4-amino-1,2,5-oxadiazol-3-yl)ethyl-ethyl-amino]-6-[[(2R,8S)-2-fluoro-1,2,3,5,6,7-hexahydropyrrolizin-8-yl]methoxy]-1,3,5-triazin-2-yl]spiro[6H-thieno[2,3-c]thiophene-4,3′-azetidine]-3-carbonitrile]	< 10	10 to 100	< 10	10 to 100
CC(c1cccnc1N)N(C)c1nc(OCC2(CN3CCOCC3)CC2)nc(N2CC3(CCc4sc(N)c(C#N)c43)C2)n1 (stereo not shown) [Compound 97, 2-amino-1′-[4-[1-(2-amino-3-pyridyl)ethyl-methyl-amino]-6-[[1-(morpholinomethyl)cyclopropyl]methoxy]-1,3,5-triazin-2-yl]spiro[5,6-dihydrocyclopenta[b]thiophene-4,3′-azetidine]-3-carbonitrile]	< 10	10 to 100	100 to 1000	1000 to 20000
CC(c1nccnc1N)N(C)c1nc(OC[C@@]23CCCN2C[C@H](F)C3)nc(N2CC3(C2)SCc2sc(N)c(C#N)c23)n1 (stereo partly drawn) [Compound 134, 2-amino-1′-[4-[1-(3-aminopyrazin-2-yl)ethyl-methyl-amino]-6-[[(2R,8S)-2-fluoro-1,2,3,5,6,7-hexahydropyrrolizin-8-yl]methoxy]-1,3,5-triazin-2-yl]spiro[6H-thieno[3,4-b]thiophene-4,3′-azetidine]-3-carbonitrile]	< 10	< 10	< 10	10 to 100
C[C@@]1(O)CCCN(c2nc(OCC3(CN4CCOCC4)CC3)nc(N3CC4(C3)c3c(sc(N)c3C#N)C[C@@H]4F)n2)C1 [Compound 68, (5S)-2-amino-5-fluoro-1′-[4-[(3R)-3-hydroxy-3-methyl-1-piperidyl]-6-[[1-(morpholinomethyl)cyclopropyl]methoxy]-1,3,5-triazin-2-yl]spiro[5,6-dihydrocyclopenta[b]thiophene-4,3′-azetidine]-3-carbonitrile]	10 to 100	< 10	100 to 1000	100 to 1000
C[C@@]1(O)CCCN(c2nc(OCC3(CN4CCOCC4)CC3)nc(N3CC4(C3)c3c(sc(N)c3C#N)CC4F)n2)C1 (stereo partly drawn) [Compound 61, 2-amino-5-fluoro-1′-[4-[(3R)-3-hydroxy-3-methyl-1-piperidyl]-6-[[1-(morpholinomethyl)cyclopropyl]methoxy]-1,3,5-triazin-2-yl]spiro[5,6-dihydrocyclopenta[b]thiophene-4,3′-azetidine]-3-carbonitrile]	10 to 100	< 10	100 to 1000	10 to 100
